Laboratory results from patent US20060204562A1, “Microprojection arrays with improved biocompatibility” (priority 2005, published 2006).

Experiments:
Format in all cases: in vivo, hairless guinea pig
[1] = urinary excretion of intact RWJ-445167 following IV injection (LC-MS); settings: following IV injection of 0.5 to 3 mg RWJ-445167
[2] = transdermal drug absorption from gel formulation with microprojection systems, extrapolated from urinary excretion
Experimental: (§1) Pretreatment and integrated systems described In U.S. application Ser. Nos. 10/971,430 and 10/970,901 were employed for the following analysis. The microprojection designs with retention features (i.e., 30a-30c) were used with the integrated system while the microprojection designs without retention features (i.e., 30d-30g) were used with the pretreatment system.
(§2) Following application of the systems, the gel formulation was left in contact with the skin for up to 24 h.

[3] = skin site irritation and bleeding after 24 h system wearing (erythema+edema score, photographs)
Experimental: as §1, §2
Referring now to FIG. 4, there is shown a series of photographs of the skin site following 24 h system wearing time.
An additional experiment using the pretreatment system was performed to compare microprojections lengths of 120 and 145 μm.
Referring now to FIG. 6, there is shown a graph illustrating the combined erythema+edema score obtained with the various microprojection designs. […] The results thus confirm that lower irritation is observed with shorter microprojections. Further, the skin site was not distinguishable from control sites (24 h wearing with the same formulation, no microprojection treatment).

dose found excreted intact in urine [1]: 7.5 % of the dose
enhancement factor ([2]; 120 μm microprojection array pretreatment vs no microprojection treatment): at least 10000 fold
duration of delivery ([2]; 120 μm microprojections (FIG. 8)): sustained delivery for 24 h
drug absorbed ([2]; following pretreatment with a 120 μm microprojection array, 24 h wearing, 20 wt % gel formulation): about 2.5 mg
drug absorption ([2]; formulation applied to the skin for 24 h in the absence of treatment with a microprojection array, detection limit): < 0.2 μg absorbed per 24 h
SMILES: Cc1cccc(S(=O)(=O)Nc2ccc(C)n(CC(=O)NCCON=C(N)N)c2=O)c1 [RWJ-445167]
combined erythema+edema score (irritation) ([3]; 120 μm microprojections (FIG. 6), 24 h wearing): absence of irritation
bleeding / erythema at skin site ([3]; pretreatment system, 120 μm microprojection length (FIG. 5)): no bleeding or erythema
bleeding at skin site ([3]; pretreatment system, 145 μm microprojection length (FIG. 5)): some pinpoint bleeding
